Experimental data published in the NIST ThermoML archive (doi:10.1016/j.jct.2004.07.024).

Test: xn = mol fraction of the nth substance listed
Settings: 101.33 kPa, Liquid

C=Cc1ccccc1 [styrene] + C[S+](C)[O-]
Settings	mass density [kg/m3]
293.15 K, x1 = 0.062	1081.91
293.15 K, x1 = 0.1289	1064.06
293.15 K, x1 = 0.2169	1042.53
293.15 K, x1 = 0.2956	1024.85
293.15 K, x1 = 0.3596	1011.37
293.15 K, x1 = 0.4103	1001.24
293.15 K, x1 = 0.4596	991.74
293.15 K, x1 = 0.5023	983.85
293.15 K, x1 = 0.5689	972.01
293.15 K, x1 = 0.626	962.31
293.15 K, x1 = 0.7025	949.86
293.15 K, x1 = 0.7865	936.88
293.15 K, x1 = 0.8595	926.02
293.15 K, x1 = 0.9312	915.7
303.15 K, x1 = 0.0852	1066.12
303.15 K, x1 = 0.1495	1049.28
303.15 K, x1 = 0.2015	1036.5
303.15 K, x1 = 0.2695	1020.82
303.15 K, x1 = 0.3351	1006.61
303.15 K, x1 = 0.4055	992.33
303.15 K, x1 = 0.4824	977.63
303.15 K, x1 = 0.5588	963.89
303.15 K, x1 = 0.6196	953.53
303.15 K, x1 = 0.6726	944.85
303.15 K, x1 = 0.7369	934.68
303.15 K, x1 = 0.8069	924.05
303.15 K, x1 = 0.8756	913.99
303.15 K, x1 = 0.9458	904.01
313.15 K, x1 = 0.0665	1060.82
313.15 K, x1 = 0.1856	1029.88
313.15 K, x1 = 0.2581	1012.95
313.15 K, x1 = 0.3296	997.38
313.15 K, x1 = 0.3895	985.13
313.15 K, x1 = 0.4469	973.98
313.15 K, x1 = 0.5132	961.75
313.15 K, x1 = 0.5958	947.37
313.15 K, x1 = 0.6553	937.53
313.15 K, x1 = 0.7125	928.47
313.15 K, x1 = 0.7665	920.19
313.15 K, x1 = 0.8269	911.23
313.15 K, x1 = 0.8801	903.57
313.15 K, x1 = 0.9485	893.98
323.15 K, x1 = 0.0653	1050.77
323.15 K, x1 = 0.1856	1019.46
323.15 K, x1 = 0.2513	1004.06
323.15 K, x1 = 0.3257	987.81
323.15 K, x1 = 0.3969	973.33
323.15 K, x1 = 0.4582	961.55
323.15 K, x1 = 0.5296	948.61
323.15 K, x1 = 0.5701	941.56
323.15 K, x1 = 0.6352	930.72
323.15 K, x1 = 0.6925	921.57
323.15 K, x1 = 0.7468	913.21
323.15 K, x1 = 0.8169	902.83
323.15 K, x1 = 0.8825	893.48
323.15 K, x1 = 0.9555	883.37
333.15 K, x1 = 0.0626	1041.08
333.15 K, x1 = 0.1745	1011.71
333.15 K, x1 = 0.2469	994.63
333.15 K, x1 = 0.2963	983.69
333.15 K, x1 = 0.3458	973.27
333.15 K, x1 = 0.3899	964.37
333.15 K, x1 = 0.4525	952.34
333.15 K, x1 = 0.5252	939.14
333.15 K, x1 = 0.6053	925.5
333.15 K, x1 = 0.6852	912.68
333.15 K, x1 = 0.7562	901.86
333.15 K, x1 = 0.8362	890.23
333.15 K, x1 = 0.8826	883.72
333.15 K, x1 = 0.9332	876.75
343.15 K, x1 = 0.0866	1023.99
343.15 K, x1 = 0.1762	1000.88
343.15 K, x1 = 0.2459	984.45
343.15 K, x1 = 0.2856	975.61
343.15 K, x1 = 0.3595	960.11
343.15 K, x1 = 0.4041	951.25
343.15 K, x1 = 0.4896	935.26
343.15 K, x1 = 0.5695	921.33
343.15 K, x1 = 0.6254	912.1
343.15 K, x1 = 0.6925	901.53
343.15 K, x1 = 0.7569	891.83
343.15 K, x1 = 0.8042	884.96
343.15 K, x1 = 0.8685	875.91
343.15 K, x1 = 0.9344	866.93
353.15 K, x1 = 0.0659	1019.29
353.15 K, x1 = 0.1289	1002.33
353.15 K, x1 = 0.1865	987.92
353.15 K, x1 = 0.2415	975.04
353.15 K, x1 = 0.3063	960.8
353.15 K, x1 = 0.3895	943.8
353.15 K, x1 = 0.4589	930.59
353.15 K, x1 = 0.5362	916.84
353.15 K, x1 = 0.6089	904.68
353.15 K, x1 = 0.6812	893.25
353.15 K, x1 = 0.7462	883.47
353.15 K, x1 = 0.8126	873.91
353.15 K, x1 = 0.8865	863.68
353.15 K, x1 = 0.9522	854.91
